Measured values reported in patent US9399639B2, “Substituted azaindole compounds, salts, pharmaceutical compositions thereof and methods of use” (Calitor Sciences, LLC, priority 2012, dated 2016).

Assays:
Format in all cases: in vitro ADME
[1] = Compound stability in rat liver microsomes; details: for CLint scaled at 1 μM: pH 7.4, in vivo CLint extrapolated; for half-life at 1 μM: pH 7.4, read-out: Rat T1/2
Procedure: (§1) Human or rat liver microsomes incubations were conducted in duplicate in polypropylene tubes. […] Compounds were dissolved in DMSO and diluted with PBS such that the final concentration of DMSO was 0.05%. The enzymatic reactions were commenced with the addition of protein after a 3 min preincubation and incubated in a water bath open to the air at 37° C. Reactions were terminated at various time points (0, 5, 10, 15, 30, 60 min) by adding equal volume of ice-cold acetonitrile. The samples were stored at −80° C. until LC/MS/MS assays.
(§2) The concentrations of compounds in the incubation mixtures of human (or rat) liver microsomes were determined by a LC/MS/MS method. The ranges of the linearity in the concentration range were determined for each tested compounds.
(§3) A parallel incubation was performed using denatured microsomes as the negative control, and reactions were terminated at various time points (for example, 0, 15, 60 min) after incubation at 37° C.
(§4) Dextromethorphan (70 μM) was selected as the positive control, and reactions were terminated at various time points (0, 5, 10, 15, 30, 60 min) after incubation at 37° C. Both positive and negative control samples were included in each assay to ensure the integrity of the microsomal incubation system.
(§5) Alternatively, the stability of some of the compounds disclosed herein in human (or rat) liver microsomes were also conducted in the following protocol. The incubations were conducted in duplicate in polypropylene tubes. […] Compounds were dissolved in DMSO and diluted with K-buffer such that the final concentration of DMSO was 0.2%. The enzymatic reactions were commenced with the addition of 15 μL of NADPH (final concentration: 2 mM) after 10 min preincubation and incubated in a 37° C. incubator. Reactions were terminated at various time points (0, 15, 30, 60 min) by adding 135 μL acetonitrile (contain IS). Protein is removed by centrifugation with 4,000 rpm, 10 min.
(§6) In the above protocol, ketanserin (1 μM) was selected as the positive control, and reactions were terminated at various time points (0, 15, 30, 60 min) after incubation at 37° C. The positive control sample was included in each assay to ensure the integrity of the microsomal incubation system.
(§7) The concentrations of compounds in liver microsome incubations were plotted as a percentage of the relevant zero time point control for each reaction. The in vivo CLint were extrapolated (ref: Naritomi et al., Prediction of human hepatic clearance from in vivo animal experiments and in vitro metabolic studies with liver microsomes from animals and humans, Drug Metab. Dispos., 2001, 29: 1316-1324.) […]

[2] = Compound stability in human liver microsomes; details: for CLint scaled at 1 μM: pH 7.4, in vivo CLint extrapolated; for half-life at 1 μM: pH 7.4, read-out: Human T1/2
Procedure: as §1, §2, §3, §4, §5, §6, §7

[3] = Stability in human plasma; details: for Human T1/2: 2 μM; for half-life at 2 μM: read-out: Human T1/2
Procedure: (§8) Similarly, selected compounds of the invention were also assessed for their stability in human and rat plasma, and the results are listed in Table 3.

Stability in rat plasma = details: read-out: Rat T1/2
Procedure: as §8

Row | Compound | CLint scaled at 1 μM [1] [mL/min/kg] | half-life at 1 μM [1] [min] | CLint scaled at 1 μM [2] [mL/min/kg] | half-life at 1 μM [2] [min] | Human T1/2 [3] | half-life at 2 μM (Stability in rat plasma) [min] | Human T1/2 ([2]; 1 μM) | half-life at 2 μM [3] [min]
1 | CCCS(=O)(=O)N(C(=O)OCC)c1ccc(F)c(C(=O)c2c[nH]c3ncc(-c4ccc(Cl)cc4)cc23)c1F [Ex. 1, ethyl 3-(5-(4-chlorophenyl)-1H-pyrrolo[2,3-b]pyridine-3-carbonyl)-2,4-difluorophenyl(propylsulfonyl)carbamate] | 142 | 17.5 | 60.2 | 28.9 | – | – | – | –
2 | CCCS(=O)(=O)N(C(=O)c1ccccc1)c1ccc(F)c(C(=O)c2c[nH]c3ncc(-c4ccc(Cl)cc4)cc23)c1F [Ex. 2, N-(3-(5-(4-chlorophenyl)-1H-pyrrolo[2,3-b]pyridine-3-carbonyl)-2,4-difluorophenyl)-N-(propylsulfonyl)benzamide] | 193 | 12.8 | 29.2 | 59.5 | – | – | – | –
3 | CCCS(=O)(=O)Nc1ccc(F)c(C(=O)c2cn(COC(=O)C(C)(C)C)c3ncc(-c4ccc(Cl)cc4)cc23)c1F [Ex. 7a, (5-(4-chlorophenyl)-3-(2,6-difluoro-3-(propylsulfonamido)benzoyl)-1H-pyrrolo[2,3-b]pyridin-1-yl)methyl pivalate] | 46.8 | 53.1 | – | – | ∞ | 68.8 | ∞ | –
4 | CCCS(=O)(=O)Nc1ccc(F)c(C(=O)c2cn(COC(=O)C(C)C)c3ncc(-c4ccc(Cl)cc4)cc23)c1F [Ex. 9, (5-(4-chlorophenyl)-3-(2,6-difluoro-3-(propylsulfonamido)benzoyl)-1H-pyrrolo[2,3-b]pyridin-1-yl)methyl isobutyrate] | – | – | – | – | – | 28.6 | – | 113
5 | CCCS(=O)(=O)Nc1ccc(F)c(C(=O)c2cn(C(C)OC(=O)CC)c3ncc(-c4ccc(Cl)cc4)cc23)c1F (stereo not drawn) [Ex. 10, 1-(5-(4-chlorophenyl)-3-(2,6-difluoro-3-(propylsulfonamido)benzoyl)-1H-pyrrolo[2,3-b]pyridin-1-yl)ethyl propionate] | – | – | – | – | – | 55.8 | – | 88.1
6 | CCCS(=O)(=O)Nc1ccc(F)c(C(=O)c2cn(C(OC(=O)CC)C(C)C)c3ncc(-c4ccc(Cl)cc4)cc23)c1F (stereo not drawn) [Ex. 11, 1-(5-(4-chlorophenyl)-3-(2,6-difluoro-3-(propylsulfonamido)benzoyl)-1H-pyrrolo[2,3-b]pyridin-1-yl)-2-methylpropyl propionate] | – | – | – | – | – | 49.8 | – | 162
7 | CCCS(=O)(=O)Nc1ccc(F)c(C(=O)c2cn(C(C)OC(=O)C(C)C)c3ncc(-c4ccc(Cl)cc4)cc23)c1F (stereo not drawn) [Ex. 14, 1-(5-(4-chlorophenyl)-3-(2,6-difluoro-3-(propylsulfonamido)benzoyl)-1H-pyrrolo[2,3-b]pyridin-1-yl)ethyl isobutyrate] | – | – | 51.7 | 33.6 | – | – | – | 511
8 | CCCS(=O)(=O)Nc1ccc(F)c(C(=O)c2cn(COC(=O)CC)c3ncc(-c4ccc(Cl)cc4)cc23)c1F [Ex. 15, (5-(4-chlorophenyl)-3-(2,6-difluoro-3-(propylsulfonamido)benzoyl)-1H-pyrrolo[2,3-b]pyridin-1-yl)methyl propionate] | – | – | – | – | – | 18.6 | – | 39.6
9 | CCCS(=O)(=O)Nc1ccc(F)c(C(=O)c2cn(C(OC(=O)C(C)C)C(C)C)c3ncc(-c4ccc(Cl)cc4)cc23)c1F (stereo not drawn) [Ex. 16, 1-(5-(4-chlorophenyl)-3-(2,6-difluoro-3-(propylsulfonamido)benzoyl)-1H-pyrrolo[2,3-b]pyridin-1-yl)-2-methylpropyl isobutyrate] | – | – | – | – | ∞ | 157 | – | –
10 | CCCS(=O)(=O)Nc1ccc(F)c(C(=O)c2cn(COC(=O)C(N)C(C)C)c3ncc(-c4ccc(Cl)cc4)cc23)c1F.Cl (stereo not drawn) [Ex. 18, (5-(4-chlorophenyl)-3-(2,6-difluoro-3-(propylsulfonamido)benzoyl)-1H-pyrrolo[2,3-b]pyridin-1-yl)methyl 2-amino-3-methylbutanoate hydrochloride] | – | – | 5.52 | 78.8 | – | 9.61 | – | 6.08
11 | CCCS(=O)(=O)Nc1ccc(F)c(C(=O)c2cn(COC(=O)CN)c3ncc(-c4ccc(Cl)cc4)cc23)c1F.Cl [Ex. 19, (5-(4-chlorophenyl)-3-(2,6-difluoro-3-(propylsulfonamido)benzoyl)-1H-pyrrolo[2,3-b]pyridin-1-yl)methyl 2-aminoacetate hydrochloride] | – | – | – | – | – | 5.9 | – | 7.47
12 | CCCS(=O)(=O)Nc1ccc(F)c(C(=O)c2cn(COC(=O)[C@@H](N)C(C)CC)c3ncc(-c4ccc(Cl)cc4)cc23)c1F.Cl (stereo partly drawn) [Ex. 22, (2S)-(5-(4-chlorophenyl)-3-(2,6-difluoro-3-(propylsulfonamido)benzoyl)-1H-pyrrolo[2,3-b]pyridin-1-yl)methyl-2-amino-3-methylpentanoate hydrochloride] | 535 | 4.6 | 23.9 | 72.8 | – | 15.2 | – | 6.81
13 | CCCS(=O)(=O)Nc1ccc(F)c(C(=O)c2cn(COC(=O)[C@@H](N)CC(C)C)c3ncc(-c4ccc(Cl)cc4)cc23)c1F.Cl [Ex. 23, (S)-(5-(4-chlorophenyl)-3-(2,6-difluoro-3-(propylsulfonamido)benzoyl)-1H-pyrrolo[2,3-b]pyridin-1-yl)methyl 2-amino-4-methylpentanoate hydrochloride] | 429 | 5.8 | 15.4 | 113 | – | 3.42 | – | 3.06
14 | CCCS(=O)(=O)Nc1ccc(F)c(C(=O)c2cn(COC(=O)OCC)c3ncc(-c4ccc(Cl)cc4)cc23)c1F [Ex. 26, (5-(4-chlorophenyl)-3-(2,6-difluoro-3-(propylsulfonamido)benzoyl)-1H-pyrrolo[2,3-b]pyridin-1-yl)methyl ethyl carbonate] | – | – | – | – | – | – | – | 81.6
15 | CCCS(=O)(=O)Nc1ccc(F)c(C(=O)c2cn(COC(=O)OC(C)C)c3ncc(-c4ccc(Cl)cc4)cc23)c1F [Ex. 27, (5-(4-chlorophenyl)-3-(2,6-difluoro-3-(propylsulfonamido)benzoyl)-1H-pyrrolo[2,3-b]pyridin-1-yl)methyl isopropyl carbonate] | – | – | – | – | – | 55.9 | – | 79.6
16 | CCCS(=O)(=O)Nc1ccc(F)c(C(=O)c2cn(C(C)OC(=O)OCC)c3ncc(-c4ccc(Cl)cc4)cc23)c1F (stereo not drawn) [Ex. 28, 1-(5-(4-chlorophenyl)-3-(2,6-difluoro-3-(propylsulfonamido)benzoyl)-1H-pyrrolo[2,3-b]pyridin-1-yl)ethyl ethyl carbonate] | – | – | – | – | – | 49.5 | – | 57.9
17 | CCCS(=O)(=O)Nc1ccc(F)c(C(=O)c2cn(C(C)OC(=O)OC(C)C)c3ncc(-c4ccc(Cl)cc4)cc23)c1F (stereo not drawn) [Ex. 30, 1-(5-(4-chlorophenyl)-3-(2,6-difluoro-3-(propylsulfonamido)benzoyl)-1H-pyrrolo[2,3-b]pyridin-1-yl)ethyl isopropyl carbonate] | – | – | – | – | ∞ | 56.3 | – | –
